From EPA's ToxValDB 9.5 come the findings set out here.

Where only a bound is given, the exact number is not on record here.

In data set [1] the test system is Rattus norvegicus. Briefly: LD0; higher = less toxic. Particulars: acute.
The subject of data set [2] is Homo sapiens. The settings on record: clinical, oral, M/F.
The subject of data set [3] is Canidae. The settings on record: oral, Beagle.
The subject of data set [4] is Mus musculus. The settings on record: acute; injection; Intraperitoneal.
For data set [5], the system named is Oryctolagus sp. The settings on record: acute; dermal; occlusive; New Zealand.
In data set [6] the test system is Homo sapiens. Particulars: clinical, oral; for NOEL: M.
The subject of data set [7] is Rattus norvegicus. The settings on record: for NOAEL: oral.
The subject of data set [8] is Homo sapiens. Particulars: clinical; duration: 2 hours; inhalation; M/F; ocular.
The test system of data set [9] is Rattus norvegicus. The settings on record: repeat dose other; oral.
In data set [10] the test system is Rattus norvegicus. The settings on record: chronic.
The test system of data set [11] is Mus musculus. Particulars: chronic; duration: 103 weeks; oral; gavage; M/F; B6C3F1; hepatic.
Data set [12] deals with Canidae. The settings on record: oral, Dog Other.
The test system of data set [13] is Rattus norvegicus. The settings on record: Hershberger; duration: 10 days; oral; gavage; Sprague-Dawley; inactive + Negative + Negative + neither + increase age at PPS, decrease wt of SV, decrease testosterone at 800 / NS increase in liver wt ….
For data set [14], the system named is Canidae. The settings on record: subchronic; duration: 90 days; oral; diet; M/F; Dog Other; no effects.
Data set [15] relates to Rattus norvegicus. The settings on record: chronic, oral, diet.
In data set [16] the test system is Rattus norvegicus. Particulars: short-term; duration: 28 days; oral; gavage; Wistar.
The test system of data set [17] is Rattus norvegicus. The settings on record: oral; for LD50: acute, Sprague-Dawley; for NOAEL: Wistar.
[18] abbreviates: radioactive iodide uptake inhibition (raiu) in the thyroid.
[19] abbreviates: chronic, duration: 1 years, diet, M/F, Increased plasma cholesterol (males).

`CCC(C#N)CC#N` (stereo unspecified) [2-Ethylbutanedinitrile] gave an LD0 in data set [1] (oral, gavage, Sprague-Dawley) of under 500 mg/kg.

The LOAEL is the lowest dose or exposure tested at which an adverse effect was seen. As to `OC(O)C(Cl)(Cl)Cl` [Chloral hydrate], the LOAEL in data set [2] (central nervous system depression and gi irritation in humans) turned out to be 10.7 mg/kg-day.

In [3] (subchronic, duration: 90 days, diet, M/F, Decreased bodyweight & feed consumption), `CO/N=C1\C[C@]2(C[C@@H]3C[C@@H](C/C=C(\C)C[C@@H](C)/C=C/C=C4\CO[C@@H]5[C@H](O)C(C)=C[C@@H](C(=O)O3)[C@]45O)O2)O[C@H](/C(C)=C/C(C)C)[C@H]1C` [Moxidectin] registered an NOEL of 0.3 mg/kg-day.

Consider `[O-][Cl+3]([O-])([O-])[O-]` [Perchlorate], for which, in data set [2] (setting [18]), the LOEL was found to be 0.02 mg/kg-day and the NOEL is 0.007 mg/kg-day.

For orientation: LD50 means the dose at which mortality reaches 50%. Take `ON=C1CCCCC1` [Cyclohexanone oxime]: the LD50 in [4] was 250 mg/kg; in data set [5], over 5000 mg/kg. The LD0 in data set [1] (oral, gavage, Fischer 344) is over 300 mg/kg.

As a reminder, the NOAEL is the highest tested level that showed no adverse finding. In [2] (cholinesterase inhibition), `CNC(=O)O/N=C/C(C)(C)SC` [Aldicarb] yielded an LOAEL of 0.025 mg/kg-day and a no observed adverse effect level (NOAEL) of 0.01 mg/kg-day.

In the case of `CCC(=O)O.CCC(=O)O.O=C(Nc1cccc(C2=NCCN2)c1)Nc1cccc(C2=NCCN2)c1` [Imidocarb dipropionate], the NOEL in [3] (subchronic, duration: 90 days, capsule, M/F, Transient reducting in food intake & histopathology in the liver) amounted to 5 mg/kg-day.

In data set [6] (Changes in cardiovascular function variables), `CC(CCc1ccc(O)cc1)NCC(O)c1ccc(O)cc1.Cl` (stereo unspecified) [Ractopamine hydrochloride] registered an NOEL of 0.067 mg/kg-day.

On to `C1COCCO1` [1,4-Dioxane], for which the LOAEL in data set [7] (chronic, duration: 104 weeks, inhalation, whole body, M, Fischer 344, respiratory) is 180 mg/m3; in data set [9] it was 1 mg/kg-day; in data set [10] (inhalation, M, atrophy and respiratory metaplasia of the olfactory epithelium), 180 mg/m3. Also, the NOAEL in data set [7] (chronic, duration: 716 days, drinking water, M/F, Sherman Wistar, hepatic) is 9.6 mg/kg-day; in data set [7] (developmental, duration: 9 days, gavage, M/F, Sprague-Dawley, developmental) it was 516 mg/kg-day; in data set [7] (subchronic, duration: 13 weeks, drinking water, M/F, Fischer 344, hepatic), 52 mg/kg-day; in data set [8], 72.1 mg/m3; in [9] it was 0.5 mg/kg-day; in data set [10] (oral, M, liver and kidney toxicity), 9.6 mg/kg-day.

Take `Cl.c1ccc([C@H]2CN3CCSC3=N2)cc1` [Levamisole hydrochloride]: the LOEL worked out at 1.25 mg/kg-day in data set [3] (chronic, duration: 14 months, capsule, Re-emergence of haemolytic anaemia) and 1.25 mg/kg-day in [3] (immunotoxicology, duration: 14 months, capsule, Re-emergence of haemolytic anaemia).

In data set [3] (chronic, duration: 1 years, capsule, M/F, Minimal to slight peripheral nerve changes & focal skeletal muscle degeneration), `CC[C@@H](C(=O)O)[C@@H]1O[C@@H]([C@@H](C)[C@H](O)[C@H](C)C(=O)[C@H](CC)[C@H]2O[C@]3(C=C[C@@H](O)[C@]4(CC[C@@](C)([C@H]5CC[C@](O)(CC)[C@H](C)O5)O4)O3)[C@H](C)C[C@@H]2C)[C@@H](C)C[C@@H]1C` [Narasin] displayed a no-observed-adverse-effect level (NOAEL) of 0.5 mg/kg-day.

In the case of `CC1=CC(=O)CC(C)(C)C1` [Isophorone], the no observed adverse effect level (NOAEL) in [7] (subchronic, duration: 90 days, diet, F, other) turned out to be 312 mg/kg-day. In [11], the lowest observed adverse effect level (LOAEL) was found to be 179 mg/kg-day. For the same compound, the NOEL came out at 150 mg/kg-day in data set [12] (subchronic, duration: 90 days, capsule, Kidney: Lesions); 200 mg/kg-day in data set [13]; 150 mg/kg-day in data set [14]. In data set [10] (duration: 2 years, oral, gavage, M/F, kidney pathology), this compound showed an LEL of 250 mg/kg-day.

In data set [6] (capsule, Clostridium difficile in stool), `CC[C@@H]1CCN[C@H](C(=O)N[C@@H]([C@H]2O[C@H](SC)[C@H](O)[C@@H](O)[C@H]2O)[C@H](C)Cl)C1` [Pirlimycin] yielded an NOEL of 50 mg.

For `N#Cc1c(N)nc(NC2CC2)nc1N` [Dicyclanil], in [3] (setting [19]), the LOEL was 4.4 mg/kg-day and the NOEL was 0.71 mg/kg-day.

Regarding `O=C(O)c1ccc(C(=O)O)cc1` [Terephthalic acid], in [15] (duration: 2 years, Bladder: Hyperplasia), the NOEL was determined as 142 mg/kg-day. The compound also showed an LD0 in [1] (oral) of 2000 mg/kg.

In the case of `O=S(=O)([O-])c1cc(Nc2nc(Nc3ccccc3)nc(N3CCOCC3)n2)ccc1C=Cc1ccc(Nc2nc(Nc3ccccc3)nc(N3CCOCC3)n2)cc1S(=O)(=O)[O-].[Na+].[Na+]`, the no observed adverse effect level (NOAEL) worked out at 825 mg/kg-day in data set [16]; 791 mg/kg-day in [17] (chronic, duration: 24 months, diet, F); 524 mg/kg-day in [17] (chronic, duration: 24 months, diet, M); 1000 mg/kg-day in data set [17] (short-term, duration: 14 days, gavage, F); 1000 mg/kg-day in data set [17] (short-term, duration: 14 days, gavage, M). For the same compound, the LD50 in data set [17] is 7000 mg/kg; in data set [17] (gavage), over 5000 mg/kg. In [1] (dermal, semiocclusive, Wistar), the LD0 was over 2000 mg/kg.

`CC(COc1ccc(C(C)(C)C)cc1)OS(=O)OCCCl` (stereo unspecified) [Aramite]: the NOAEL was 7.8 mg/kg-day in [15] (duration: 104 weeks, Liver: Increased weight) and 10 mg/kg-day in data set [12] (chronic, duration: 52 weeks, diet, Liver: Degeneration).

For the compound `COP(=O)(OC)C(O)C(Cl)(Cl)Cl` (stereo unspecified) [Trichlorfon], in data set [6] (duration: 10 weeks, Inhibition of acetylcholinesterase activity), the LOEL was 0.2 mg/kg-day.
